Measured values taken from patent US20100004165A1, “Novel Protein Transduction Domains and Uses Therefor” (The Arizona Board of Regents, a body corporate acting on …, priority 2005, published 2010).
Square brackets hold non-standard residues; d marks the D form. Ends that are not written are not given here. pS = N[C@@H](COP(=O)(O)O)C(=O)O

Experiments:
porcine ear skin [1] = test: In vitro skin penetration and transdermal delivery, porcine ear skin in Franz diffusion cell, spectrofluorimetry (Example 3); details: up to 8 hours post-application
Experimental: Fluorescence microscopy was used to visualize the peptides in different skin layers.
Formulations: Except in the experiments involving chemical penetration enhancers, FITC-labeled peptides were dissolved in phosphate-buffered saline (PBS, 10 mM, pH 7.2); the peptide concentration was 100 μM. In the experiment involving penetration enhancers, PBS could not be used as a solvent because of the lipophilic nature of monoolein and oleic acid. Propylene glycol was used as a solvent, since it solubilizes both lipids and peptides. […] The formulations were prepared by mixing monoolein or oleic acid with propylene glycol and adding the peptides to the system immediately thereafter.
Porcine ear skin was used as model skin for in vitro skin penetration studies because of its similarity with human skin, especially regarding histological and biochemical properties and permeability to drugs (33). Freshly excised porcine ears were obtained from a local abattoir. The skin from the outer surface of the ear was carefully dissected; making sure that the subcutaneous fat was maximally removed (34). Maximum care was taken to maintain the integrity of the skin, which was assured by histology. The cleaned porcine ear skin was immediately mounted in a Franz diffusion cell (diffusion area of 1 cm^2; Laboratory Glass Apparatus, Inc, Berkeley, Calif., USA), with the stratum corneum facing the donor compartment (where the formulation was applied) and the dermis facing the receptor compartment, which was filled with PBS (100 mM, pH 7.2, 3 mL). The receptor phase was maintained at 37° C. and under constant stirring. To achieve higher reproducibility, the skin samples were equilibrated to the diffusion cell conditions for 30 minutes before application of any formulation.
PBS solutions or propylene glycol formulations of the peptides (70 μL each) were applied to the skin surface (donor compartment). […] The concentrations of FITC-P20 (SEQ ID NO: 9), FITC-YARA-P20 (SEQ ID NO: 42), and FITC-TAT-P20 (SEQ ID NO: 43) in the skin and receptor phase were determined at 0.5, 1, 2, 4, and 8 hour post-application.
At the end of the experiment, skin surfaces were thoroughly washed with distilled water to remove excess formulation and carefully wiped with a tissue paper. To separate the stratum corneum (SC) from the remaining epidermis (E) and dermis (D), the skin was subjected to tape stripping. The skin was stripped with 15 pieces of adhesive tape (3M, St. Paul, Minn., USA), and the tapes containing the SC were immersed in 3 mL of a water:methanol (1:1 v/v) solution, vortexed for 2 min, and bath sonicated for 30 minutes. The remaining [E+D] was cut in small pieces, vortexed for 2 minutes in 2 mL of a water:methanol (1:1 v/v) solution, and homogenized using a tissue grinder for 1 minute and bath sonication for 30 minutes. The resulting mixture was centrifuged for 1 minute. The peptide present in the receptor phase was concentrated (10×) as follows. Samples (2 mL) of the receptor phase were lyophilized for 24 hours, and the residue was dissolved in 200 μL of a hidroalcoholic (20% of ethanol) solution.
All solutions were subjected to fluorimetry analysis using a Gemini SpectraMax™ platereader (Molecular Devices, Sunnyvale, Calif., USA) with excitation at 495 nm and emission at 518 nm. […] To evaluate the recovery of the peptides from the skin in the extraction procedure, tissues sections (1 cm^2) were spiked with 20 μL of 0.2 and 0.5 mM solutions of the peptides. The skin sections were homogenized using a tissue grinder, vortex-mixer, and bath sonicator, as described above. […] We accounted for such a recovery percentage in the quantification of peptides.

porcine ear skin [2] = test: Fluorescence microscopy of skin sections after peptide application; details: 4 hours post-application
Excerpt: The skin sections (8 μm) were mounted on glass slides. The slides were visualized without any additional staining or treatment through a 20× objective using a Zeiss microscope (Carl Zeiss, Thornwood, N.Y., USA) equipped with a filter for FITC and AxioVision software.

[3] = system: connective tissue growth factor (CTGF); test: TGFβ1-induced CTGF expression in human keloid fibroblasts (immunoblot); type: cell-based; details: 24 hours; for reduction of CTGF expression compared to TGFβ1 treatment: 50 μM peptide
Experimental: As a key marker of the anti-fibrotic activity of HSP20 peptides, we have previously examined expression levels of connective tissue growth factor (CTGF) in human keloid fibroblasts after stimulation with transforming growth factor beta 1 (TGFβ1). Cells were grown in 10 cm^2 dishes to 70% confluence in DMEM with 10% fetal bovine serum (FBS) and additional penicillin and streptomycin (1%), at 37° C. and 10% CO2. Cells were serum starved in DMEM containing 0.5% FBS for 48 hours before the experiment. Cells were either untreated (control) or treated with TGFβ1 (2.5 ng/mL) in the presence or absence of WL-P20 (SEQ ID NO: 10) phosphopeptide ([…]p[…], where pS is phosphoserine) (10 or 50 μM) for 24 hours. At the end of the experiment, cells were rinsed with PBS, and homogenized using urea-dithiothreitol-chaps (UDC) buffer. Lysates were mixed, centrifuged (6000×g) for 20 minutes, and the supernatant was used for determination of protein expression. Samples (20 μg of protein) were loaded on 15% SDS-PAGE gels, and the proteins were electrophoretically transferred to Immobilon membranes. Immunoblotting with CTGF antibodies was used in conjunction with near infrared detection antibodies to determine CTGF expression (Odyssey Li-Cor, Lincoln, Nebr.). Loading differences were corrected for by normalizing to GAPDH expression
(§1) Human keloid fibroblasts were serum-starved in DMEM medium containing 0.5% FBS for 48 hours, and treated with 2.5 ng/mL of TGF-betal for 24 hours and concomitantly treated with the WL-20 (SEQ ID NO: 10) (10 or 50 μM) for 24 hours. The Western blot bands were quantified by densitometry, and CTGF and collagen expression were related to GAPDH expression to correct for loading differences. The expression of CTGF and collagen in control cells was set to 1 for comparison of different blots.

[4] = system: primary rat astrocyte cells; test: Transduction across cell membranes in primary rat astrocyte cells; type: cell-based
Experimental: The in vitro model used to assess transduction across cell membranes was primary rat astrocyte cells. Cells were isolated as described (Innocenti et. al., J. Neurosci. 20:1800-1808, 2000), seeded at ˜3×10^4 cells/cm^2, and cultured in full serum (10% FBS in α-MEM) overnight. Some cells were serum starved by culturing in 0.5% FBS for 1-24 hours prior to treatment with transduction peptides.

porcine ear skin [5] = test: Ex vivo skin transduction, porcine ear skin in modified Franz diffusion cell (Example 2); type: in vitro ADME; details: 100 uM, conjugated or alone (FIG. 1, Panel C)
Experimental: The ex vivo model selected for skin transduction studies was freshly excised porcine ears. […] The system was maintained at 37° C. and under constant stirring. […] The amount of peptides that permeated across the skin was determined in the receptor phase; 1.5 mL of the receptor phase was withdrawn, lyophilized and the residue was suspended in 150 μL of water. […] Standard curves of the peptides were used as reference.

anal canal = details: 1 mM in K-Y Jelly, 4 hours
Experimental: (§2) Peptide was applied to both the vagina and anal canal using an applicator and allowed to penetrate for 4 hours. Tissue was excised and embedded in frozen tissue embedding medium (HistoPrep) for cryosectioning. Sections were mounted in anti-fade reagent and examined using fluorescence microscopy (Zeiss Axiovert).

vagina = details: 1 mM in K-Y Jelly, 4 hours
Experimental: as §2

Rat aorta = test: Vasorelaxation of rat aorta rings pre-contracted with KCl (muscle bath)
Experimental: Rat aorta was isolated and dissected free from connective and fat tissue. Transverse rings, 3.0 mm in width, were cut and tied to silk suture. The tissue was suspended in a muscle bath containing a bicarbonate buffer (120 mM NaCl, 4.7 mM KCl, 1.0 mM MgSO4, 1.0 mM NaH2PO4, 10 mM glucose, 1.5 mM CaCl2, and 25 mM […], pH 7.4) and equilibrated with 95% O2/5% CO2 at 37° C. The rings were fixed at one end to a stainless steel wire and attached to a force transducer in muscle perfusion system (Radnotti). The rings were then progressively stretched, and the isometric force generated in response to 110 mM KCl (with equimolar replacement of NaCl in bicarbonate buffer) was determined until the consistent maximal force was produced. Agonists and peptide was added directly to the baths. Tissue that was pre-contracted with 110 mM potassium chloride (KCl) followed by 1.0 mM WL-P20 ([…]p[…], pS is phosphoserine) (SEQ ID NO: 10), where pS is phosphoserine) relaxed compared to untreated control (13% relaxation at 10 minutes, 50% relaxation at 30 minutes, and maximum 88% relaxation at ˜60 minutes, FIG. 4). Percent relaxation was calculated relative to maximum force generated with KCl. […] Such a difference may result from different mechanisms of penetration and/or intracellular localization.

collagen = test: TGFβ1-induced collagen expression in human keloid fibroblasts (Western blot); type: cell-based; details: 10 or 50 μM, 24 hours
Experimental: as §1

Row | Substance | permeation across the skin, in words (porcine ear skin [1]) | localisation of fluorescence in skin layers (porcine ear skin [2]) | reduction of CTGF expression compared to TGFβ1 treatment [3] [%] | time of maximal transduction [4] | transduction ([4]; 1 μM) | transduction ([4]; 25 μM) | transduction ([4]; 50 μM) | skin penetration (porcine ear skin [5]) | fluorescence in the anal canal (anal canal) | mucosal penetration in the vagina (vagina) | time of maximum relaxation (Rat aorta) [min] | maximum relaxation relative to maximum force generated with KCl (Rat aorta; 1.0 mM peptide, 110 mM KCl pre-contraction) [%] | relaxation relative to maximum force generated with KCl (Rat aorta; 1.0 mM peptide, 110 mM KCl pre-contraction, at 10 minutes) [%] | relaxation relative to maximum force generated with KCl (Rat aorta; 1.0 mM peptide, 110 mM KCl pre-contraction, at 30 minutes) [%] | effect on TGFβ1-induced CTGF expression ([3]; 10 or 50 μM) | effect on TGFβ1-induced collagen expression (collagen)
1 | WLRRApSAPLPGLK (WLRRA[pS]APLPGLK; also: FITC label) [P20, fragment of HSP20, cargo peptide, pS is phosphoserine] | did not permeate across the skin at all | fluorescence was found only in the SC | 30 |  |  |  |  |  |  |  |  |  |  |  |  | 
2 | WLRRIKAWLRRApSAPLPGLK (WLRRIKAWLRRA[pS]APLPGLK) [WL-P20] |  |  | 46 | approximately 20 minutes | no transduction | slightly reduced transduction | efficient transduction | significantly enhanced | only minimal fluorescence | Mucosal penetration in the vagina was achieved | ~60 | 88 | 13 | 50 | inhibits | inhibits
